Measured values: ChEMBL document CHEMBL1156538, “Microwave-assisted solid phase synthesis, PEGylation, and biological activity studies of glucagon-like peptide-1(7-36) amide” (2008)

Columns and labels:
Assay type in all cases: functional
Mus musculus [1] = assay: Decrease in blood glucose level in Kunming mouse at 25 nmol/kg, ip administered 90 mins before 18 mmol/kg, ip glucose injection after 30 mins
Mus musculus [2] = assay: Decrease in blood glucose level in Kunming mouse at 25 nmol/kg, ip administered 90 mins before 18 mmol/kg, ip glucose injection after 45 mins
Mus musculus [3] = assay: Decrease in blood glucose level in Kunming mouse at 25 nmol/kg, ip administered 90 mins before 18 mmol/kg, ip glucose injection after 60 mins
Mus musculus [4] = assay: Decrease in blood glucose level in Kunming mouse at 25 nmol/kg, ip administered simultaneously with glucose at 18 mmol/kg, ip after 15 mins
Mus musculus [5] = assay: Decrease in blood glucose level in Kunming mouse at 25 nmol/kg, ip administered simultaneously with glucose at 18 mmol/kg, ip after 30 mins
Mus musculus [6] = assay: Decrease in blood glucose level in Kunming mouse at 25 nmol/kg, ip administered simultaneously with glucose at 18 mmol/kg, ip after 45 mins
Mus musculus [7] = assay: Decrease in blood glucose level in Kunming mouse at 25 nmol/kg, ip administered simultaneously with glucose at 18 mmol/kg, ip after 60 mins
Mus musculus [8] = assay: Decrease in blood glucose level in Kunming mouse at 25 nmol/kg, ip administered 90 mins before 18 mmol/kg, ip glucose injection after 15 mins

Compound `CC[C@H](C)[C@H](NC(=O)[C@H](Cc1ccccc1)NC(=O)[C@H](CCC(=O)O)NC(=O)[C@H](CCCCN)NC(=O)[C@H](C)NC(=O)[C@H](C)NC(=O)[C@H](CCC(N)=O)NC(=O)CNC(=O)[C@H](CCC(=O)O)NC(=O)[C@H](CC(C)C)NC(=O)[C@H](Cc1ccc(O)cc1)NC(=O)[C@H](CO)NC(=O)[C@H](CO)NC(=O)[C@@H](NC(=O)[C@H](CC(=O)O)NC(=O)[C@H](CO)NC(=O)[C@@H](NC(=O)[C@H](Cc1ccccc1)NC(=O)[C@@H](NC(=O)CNC(=O)[C@H](CCC(=O)O)NC(=O)CNC(=O)[C@@H](N)Cc1cnc[nH]1)[C@@H](C)O)[C@@H](C)O)C(C)C)C(=O)N[C@@H](C)C(=O)N[C@@H](Cc1c[nH]c2ccccc12)C(=O)N[C@@H](CC(C)C)C(=O)N[C@H](C(=O)N[C@@H](CCCCN)C(=O)NCC(=O)N[C@@H](CCCNC(=N)N)C(N)=O)C(C)C` has an Activity (Mus musculus [1]) of 14.67 mmol/L, an Activity (Mus musculus [2]) of 10.23 mmol/L and an Activity (Mus musculus [3]) of 9.18 mmol/L. It also gave an Activity (Mus musculus [4]) of 12.98 mmol/L, an Activity (Mus musculus [5]) of 8.27 mmol/L and an Activity (Mus musculus [6]) of 7.7 mmol/L. For the same compound, the Activity (Mus musculus [7]) was 7.18 mmol/L and the Activity (Mus musculus [8]) was 17.92 mmol/L.
